Measured values taken from paper PMC12876586, “Chronological lifespan extension and nucleotide salvage inhibition in yeast by isonicotinamide supplementation” (The Journal of Biological Chemistry, 2026).

What was measured:
Assay type in all cases: biochemical
[1] = molecular target: T1, Pho8 (Saccharomyces cerevisiae, UniProt P11491); test: pNPP hydrolysis, A400, whole cell extract of pho13Δ; conditions: pNPP substrate, Mg2+, Zn2+, pH 8.8, 37 °C, 15 min; weak inhibitor
T1 construct: native enzyme in whole cell extract of pho13Δ strain (Pho8 the remaining alkaline phosphatase)
T1 sequence (P11491 1-534): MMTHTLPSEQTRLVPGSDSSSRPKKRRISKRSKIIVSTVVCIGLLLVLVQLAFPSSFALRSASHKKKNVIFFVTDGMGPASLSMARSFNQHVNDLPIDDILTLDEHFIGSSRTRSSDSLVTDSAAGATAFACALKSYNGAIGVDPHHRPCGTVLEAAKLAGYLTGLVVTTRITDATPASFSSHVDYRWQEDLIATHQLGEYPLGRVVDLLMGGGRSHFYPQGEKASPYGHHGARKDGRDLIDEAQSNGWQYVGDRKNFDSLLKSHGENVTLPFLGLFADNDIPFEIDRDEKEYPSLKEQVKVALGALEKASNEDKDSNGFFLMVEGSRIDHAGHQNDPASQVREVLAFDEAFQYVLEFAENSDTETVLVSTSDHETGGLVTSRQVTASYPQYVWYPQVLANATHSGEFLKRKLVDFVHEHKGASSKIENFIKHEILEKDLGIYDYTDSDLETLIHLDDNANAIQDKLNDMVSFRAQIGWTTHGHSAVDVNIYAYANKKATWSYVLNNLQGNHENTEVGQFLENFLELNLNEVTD

[2] = molecular target: T2, Sdt1 (Saccharomyces cerevisiae, UniProt P53078); test: malachite green phosphate release; conditions: 100 μM CMP (also inhibited with NMN), 5 mM MgCl2, pH 7.5, 37 °C, 30 min; mM INAM
T2 construct: recombinant, C-terminal His tag, commercial (Echelon Biosciences)
T2 sequence (P53078 whole entry): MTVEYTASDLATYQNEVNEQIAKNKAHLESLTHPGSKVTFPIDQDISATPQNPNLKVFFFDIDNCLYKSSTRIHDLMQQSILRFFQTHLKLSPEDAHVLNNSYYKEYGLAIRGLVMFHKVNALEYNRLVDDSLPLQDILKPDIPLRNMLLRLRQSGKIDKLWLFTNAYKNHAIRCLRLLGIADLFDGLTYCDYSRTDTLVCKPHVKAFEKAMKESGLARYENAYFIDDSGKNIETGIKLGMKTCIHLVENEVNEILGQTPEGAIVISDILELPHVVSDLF

[3] = molecular target: T3, Phm8 (Saccharomyces cerevisiae, UniProt P40025); test: malachite green phosphate release; conditions: 100 μM CMP, 5 mM MgCl2, pH 7.5, 37 °C, 30 min; mM INAM
T3 construct: pET-16b (NdeI), E. coli BL21(DE3), C-terminal 10xHis as printed, Ni-NTA purified
T3 sequence (P40025 1-321): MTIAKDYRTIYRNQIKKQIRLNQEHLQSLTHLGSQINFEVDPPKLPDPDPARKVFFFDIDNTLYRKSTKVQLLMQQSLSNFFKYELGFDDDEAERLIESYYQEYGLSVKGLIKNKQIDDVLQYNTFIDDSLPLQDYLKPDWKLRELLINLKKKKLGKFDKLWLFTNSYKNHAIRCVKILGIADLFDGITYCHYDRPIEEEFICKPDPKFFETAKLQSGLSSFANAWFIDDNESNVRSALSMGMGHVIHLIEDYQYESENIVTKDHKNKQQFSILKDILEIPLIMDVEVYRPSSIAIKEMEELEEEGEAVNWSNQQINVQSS

[4] = molecular target: T4, Pho13 (Saccharomyces cerevisiae, UniProt P19881); test: pNPP hydrolysis, A400, whole cell extract of pho8Δ; conditions: pNPP substrate, Mg2+, Zn2+, pH 8.8, 37 °C, 15 min; weak inhibitor
T4 construct: native enzyme in whole cell extract of pho8Δ strain (Pho13 the remaining alkaline phosphatase)
T4 sequence (P19881 1-312): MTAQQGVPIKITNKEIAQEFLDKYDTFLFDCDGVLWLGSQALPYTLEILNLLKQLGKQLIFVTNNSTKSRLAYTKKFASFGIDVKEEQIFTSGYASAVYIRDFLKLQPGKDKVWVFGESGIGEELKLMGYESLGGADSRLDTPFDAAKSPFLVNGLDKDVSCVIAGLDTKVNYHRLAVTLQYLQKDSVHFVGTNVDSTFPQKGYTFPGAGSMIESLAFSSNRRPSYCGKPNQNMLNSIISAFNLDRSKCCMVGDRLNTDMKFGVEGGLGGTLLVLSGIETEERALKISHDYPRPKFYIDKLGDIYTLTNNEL

[5] = molecular target: T2, Sdt1; test: malachite green phosphate release; conditions: 100 μM substrate, 5 mM MgCl2, pH 7.5, 37 °C, 30 min
[6] = molecular target: T2, Sdt1; test: malachite green phosphate release; conditions: activator; 100 μM NMN, 5 mM MgCl2, pH 7.5, 37 °C, 30 min; mM NAM
[7] = molecular target: T4, Pho13; test: pNPP hydrolysis, A400, whole cell extract of pho8Δ; conditions: Mg2+, Zn2+, pH 8.8, 37 °C, 15 min
[8] = molecular target: T1, Pho8; test: pNPP hydrolysis, A400, whole cell extract of pho13Δ; conditions: Mg2+, Zn2+, pH 8.8, 37 °C, 15 min

NC(=O)c1ccncc1 [isonicotinamide]
inhibition of alkaline phosphatase activity [1]: suggesting that Pho8 and Pho13 are both weak inhibitory targets | inhibition of nucleotidase activity [2]: Sdt1 and Phm8 activity on CMP and NMN was significantly inhibited by INAM | inhibition of nucleotidase activity [3]: INAM inhibition of recombinant Sdt1 and Phm8 nucleotidase activity on CMP in vitro | inhibition of alkaline phosphatase activity [4]: suggesting that Pho8 and Pho13 are both weak inhibitory targets

NC(=O)c1ccc[n+]([C@@H]2O[C@H](COP(=O)(O)O)[C@@H](O)[C@H]2O)c1 [nicotinamide mononucleotide]
malachite green phosphate release [5]: INAM inhibition of recombinant Sdt1 nucleotidase activity on NMN in vitro

NC(=O)c1cccnc1 [nicotinamide]
stimulation of nucleotidase activity [6]: NAM caused significant dose-dependent stimulation of Sdt1 nucleotidase activity with NMN as substrate

O=[N+]([O-])c1ccc(OP(=O)(O)O)cc1 [p-nitrophenyl phosphate]
pNPP hydrolysis, A400, whole cell extract of pho8Δ [7]: both utilize pNPP as a substrate in vitro | pNPP hydrolysis, A400, whole cell extract of pho13Δ [8]: both utilize pNPP as a substrate in vitro
